This note sets out measurements from publication PMC4751974, “Deriving Heterospecific Self-Assembling Protein–Protein Interactions Using a Computational Interactome Screen” (Journal of Molecular Biology, 2016).

As a reminder, the Tm is the temperature at the midpoint of the melting transition.

For the test, the system named is coiled-coil pairs within the eight-peptide interactome. The experiment in a line: Thermal denaturation followed by CD at 222 nm (Tm of coiled-coil pairs). The following applies: Table 1 and text, CD 222 nm, 150 μM total peptide (75 μM per peptide for heterodimers), 10 mM potassium phosphate, 100 mM potassium fluoride, pH 7, -8 to 95 °C in 1 °C steps, two-state fit. The format is binding. On the procedure:
CD was carried out using an Applied Photophysics Chirascan CD apparatus (Leatherhead, UK) using a 200-μl sample in a CD cell with a 1-mm path length. Samples contained 150 μM total peptide (Pt) concentration at equimolar concentration for heterodimeric solutions (i.e., 75 μM per peptide) and suspended in 10 mM potassium phosphate and 100 mM potassium fluoride at pH 7 1 h prior to analysis. The CD spectra of samples were scanned between 300 nm and 190 nm in 1-nm steps, averaging 0.5 s at each wavelength. Three scans at 20 °C were averaged to assess helical levels and coiled-coil structure.
Thermal denaturations were performed at 150 μM Pt in 10 mM potassium phosphate and 100 mM potassium fluoride, pH 7, using an Applied Photophysics Chirascan CD instrument (Leatherhead, UK). The temperature ramp was set to stepping mode using 1 °C increments and paused for 30 s at each temperature before measuring ellipticity at 222 nm. For all temperature denaturation experiments, data collection was started at − 8 °C, and at this temperature, the peptide solutions remained aqueous. Data collection continued to 95 °C. Data points for thermal denaturation profiles represent the averaged signal after 4 s of data collection. Melting profiles (see Fig. 3a) were ≥ 95% reversible with equilibrium denaturation curves fitted to a two-state model, derived via modification of the Gibbs–Helmholtz equation [6], [45], [46], to yield the melting temperature (Tm). […] Tm values were determined by least-squares fitting of the denaturation assuming a two-state folding model that is widely used for coiled coils and provided an excellent fit to our data.

Consider “ASKNAALKAENAALEYEIAALEAKIAALKGAP [Peptide 2, N- and C-capped coiled-coil peptide; 2-2 is the homomeric sample]”, for which the Tm was found to be 20 °C.
Same read-out and setting: the same measure for “ASKNAALKAEIAALEYKIAALKAENAALEGAP [Peptide 5, N- and C-capped coiled-coil peptide; 5-5 is the homomeric sample]”: 53 °C; for “ASENAALEAKNAALKYKIAALKAEIAALEGAP [Peptide 1, N- and C-capped coiled-coil peptide; 1-1 is the homomeric sample]”: 32 °C; for “ASENAALEAKIAALKYEIAALEAKNAALKGAP [Peptide 6, N- and C-capped coiled-coil peptide; 6-6 is the homomeric sample]”: 53 °C.
For “ASKIAALKAKNAALKYENAALEAEIAALEGAP [Peptide 7, N- and C-capped coiled-coil peptide; 7-7 is the homomeric sample]”, the Tm (listed as 7-7) amounted to 11 °C.
On to “ASEIAALEAENAALEYKNAALKAKIAALKGAP [Peptide 8, N- and C-capped coiled-coil peptide; 8-8 is the homomeric sample]”, for which the midpoint of thermal melting (Tm) (listed as 8-8) was found to be 27 °C.
